Measurements taken from patent US20210299268A1, “ANTIBODY-ALK5 INHIBITOR CONJUGATES AND THEIR USES” (Synthis Therapeutics, Inc., priority 2018, published 2021).
Read-outs that look alike come from different tables or passages of the source.

Columns and labels:
[1] = tested on: primary mouse CD4+ T cells; assay: MTS proliferation assay; type: cell-based
Description: Compounds A-D were tested to determine whether they could inhibit TGF-β signaling in primary mouse CD4^+ T cells.
Primary mouse CD4^+ T cells were isolated from the spleens of C57/B6 mice using the RoboSep™ cell isolation system (Stemcell Technologies). 0.5 μg/ml of hamster anti-mouse CD3e antibody (145-2C11; eBioscience) was coated onto a 96 well flat bottom plate overnight. 1×10^5 purified CD4^+ T cells were incubated with 1 μg/ml soluble hamster anti-mouse CD28 antibody (37.51, BD Biosciences), 1 nM TGF-β1 and 8-fold serial dilutions of Compounds A-D. After 72 hours, cell proliferation was measured using an MTS assay (Promega) in accordance with the manufacturer's instructions.

[2] = tested on: TGF-β-induced luciferase activity in HEK293T cells; assay: TGF-β-induced SMAD luciferase reporter assay in HEK293T cells; type: cell-based, human; details: HEK-293T
Description: Compounds A-D were tested to determine whether they could inhibit TGF-β-induced luciferase activity in HEK293T cells in vitro.
30,000 HEK293T cells were seeded in a 96 well white flat bottom plate overnight. The next day 100 ng of a SMAD luciferase reporter plasmid per well was transfected into the cells using lipofectamine for 24 hours. The next day cells were treated with Compounds A-D and 100 pM TGFβ for 24 hours. Luciferase activity was measured using the Dual-Glo® luciferase assay kit (Promega). The assay was run twice for Compounds A, B, and D, and three times for Compound C.

ALK5 = target: T1, ALK5 (Homo sapiens, UniProt P36897); assay: recombinant kinase assays; type: biochemical
T1 sequence (P36897 34-503): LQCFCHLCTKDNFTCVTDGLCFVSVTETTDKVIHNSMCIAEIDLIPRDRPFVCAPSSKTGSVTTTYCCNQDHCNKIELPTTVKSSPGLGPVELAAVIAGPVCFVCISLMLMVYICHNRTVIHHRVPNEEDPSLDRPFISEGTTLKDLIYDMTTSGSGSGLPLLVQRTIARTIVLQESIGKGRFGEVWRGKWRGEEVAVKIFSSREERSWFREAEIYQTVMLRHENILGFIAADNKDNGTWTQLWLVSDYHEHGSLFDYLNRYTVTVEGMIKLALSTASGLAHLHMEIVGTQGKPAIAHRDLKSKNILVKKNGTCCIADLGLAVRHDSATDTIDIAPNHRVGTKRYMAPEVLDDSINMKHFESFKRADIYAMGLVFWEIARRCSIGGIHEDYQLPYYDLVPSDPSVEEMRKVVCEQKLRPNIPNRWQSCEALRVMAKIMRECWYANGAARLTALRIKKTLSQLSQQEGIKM
Description: Compound N was compared to Compound C in a number of in vitro assays.

[3] = Kinase = 1.5 nM, read-out: IC50 (nM) (Kinase = 1.5 nM)
[4] = Kinase = 25 nM, read-out: IC50 (nM) (Kinase = 25 nM)
[5] = Morrison equat/ 5 uM ATP, read-out: Ki (nM) (Morrison equat/ 5 uM ATP)
[6] = Steady state equation, read-out: Ki (nM) (Steady state equation)

SMILES | effect on TGFβ-mediated inhibition of T cell proliferation ([1]; 1 nM TGF-β1, 72 hours) | Experiment 1 IC50 (nM) ([1]; 1 nM TGF-β1, 72 hours) | IC50 (ALK5; [3]) [nM] | IC50 (ALK5; [4]) [nM] | Ki (ALK5; [5]) [nM] | Ki (ALK5; [6]) [nM] | other results
Cc1cccc(-c2nc(N)sc2-c2ccc3ncccc3n2)n1 [Compound A, 4-(6-methylpyridin-2-yl)-5-(1,5-naphthyridin-2-yl)thiazol-2-amine] | did not show consistent effects | Value not obtained | – | – | – | – | –
CNCCOc1ccc(-c2cc(-c3c[nH]nc3-c3ccccn3)ccn2)cc1 [Compound B, N-methyl-2-(4-(4-(3-(pyridin-2-yl)-1H-pyrazol-4-yl)pyridin-2-yl)phenoxy)ethan-1-amine] | reversed TGFβ-mediated inhibition of T cell proliferation | – | – | – | – | – | –
CNCCOc1ccc(-c2cc(-c3c[nH]nc3-c3cccc(C)n3)ccn2)cc1 [Compound C, N-methyl-2-(4-(4-(3-(6-methylpyridin-2-yl)-1H-pyrazol-4-yl)pyridin-2-yl)phenoxy)ethan-1-amine] | reversed TGFβ-mediated inhibition of T cell proliferation | – | 1.8 | 10 | 0.11 | 2.25 | IC50 ([1]; CD4+ T, summary value, mouse T cells, read-out: Mouse T cell proliferation assay): 26 nM; IC50 ([2]; summary value, human HEK cells, read-out: HEK Luciferase Assay): 11.7 nM; IC50 ([2]; Homo sapiens, Experiment 1, 100 pM TGFβ, 24 hours, read-out: Experiment 1 IC50): 10.1 nM; fold more potent than Compound N in the recombinant assays (ALK5): 10 fold
CCc1cc(-c2ccc3ncnc(N)c3c2)n(-c2cccc(C)n2)n1 [Compound N] | – | – | 12 | 18 | 2.1 | 18.4 | –
CCNC(=O)c1ccc2c(c1)NC(=O)/C2=C(\Nc1ccc(N(CCNC)S(C)(=O)=O)cc1)c1ccccc1 [Compound D, (Z)-N-ethyl-3-(((4-(N-(2-(methylamino)ethyl)methylsulfonamido)phenyl)amino)(phenyl)methylene)-2-oxoindoline-6-carboxamide] | not obtained | Value not obtained | – | – | – | – | Experiment 2 IC50 (nM) ([1]; Experiment 2, 1 nM TGF-β1, 72 hours): Value not obtained
